Tests used:
Assay type in all cases: in vivo, human
[1] = tested on: patients who experience first psychotic episode; experiment: CANTAB Intra-extra dimensional set-shifts (IED), adjuvant study; details: atypical antipsychotic drug+minocycline 200 mg/day vs +placebo; time x group p<0.0001
Protocol: The study was carried out in patients who experience first psychotic episode, and has followed the patient for a total duration of 6 months. As the study examines Minocycline as an adjuvant drug, the sample includes patients receiving one of the following atypical anti-psychotic drugs: Risperdal, Zyprexa, Geodon, Seroquel, and Leponex. […] In addition, the subjects were assessed by a battery of computerized neuropsychological tests (CANTAB—Cambridge Neuropsychological Test Automated Battery), measuring attention, memory, and planning. Minocycline was given as an add-on therapy. Prior to randomization into minocycline/placebo adjuvant treatment, a preliminary (lead-in phase) screening phase of placebo treatment was undertaken: Placebo was given as an adjuvant to all patients for two weeks. […] Randomization was then carried out by the principal investigator. […] Clinical status was evaluated by the aforementioned scales at the onset of the study, every week for the first 6 weeks, and then once a month for the rest of the study period. Cognitive capabilities were assessed by the neuropsychological battery of tests according to the following schedule: upon initiation of the study (referred to as visit 1 in FIGS. 5-8), 3 months (referred to as visit 2 in FIGS. 5-8), and 6 months (referred to as visit 3 in FIGS. 5-8) after the start of the study. […]

[2] = Body weight change 12 weeks after start of treatment, adjuvant study; details: atypical antipsychotic drug+minocycline 200 mg/day
Protocol: The study was carried out in patients who experience first psychotic episode, and has followed the patient for a total duration of 6 months. As the study examines Minocycline as an adjuvant drug, the sample includes patients receiving one of the following atypical anti-psychotic drugs: Risperdal, Zyprexa, Geodon, Seroquel, and Leponex. […] Minocycline was given as an add-on therapy. Prior to randomization into minocycline/placebo adjuvant treatment, a preliminary (lead-in phase) screening phase of placebo treatment was undertaken: Placebo was given as an adjuvant to all patients for two weeks. […] Randomization was then carried out by the principal investigator. The raters and evaluators of the subjects participating in the study were blind to the randomization. […] The body weight of the patients was measured at the start of the study and then 12 weeks later (FIG. 12).

[3] = tested on: patients who experience first psychotic episode; experiment: CANTAB Spatial Recognition Memory (SRM), adjuvant study; details: atypical antipsychotic drug+minocycline 200 mg/day vs +placebo; time x group p<0.01
Protocol: The study was carried out in patients who experience first psychotic episode, and has followed the patient for a total duration of 6 months. As the study examines Minocycline as an adjuvant drug, the sample includes patients receiving one of the following atypical anti-psychotic drugs: Risperdal, Zyprexa, Geodon, Seroquel, and Leponex. […] In addition, the subjects were assessed by a battery of computerized neuropsychological tests (CANTAB—Cambridge Neuropsychological Test Automated Battery), measuring attention, memory, and planning. Memory was tested using spatial and pattern recognition and spatial span tasks of the CANTAB. Minocycline was given as an add-on therapy. Prior to randomization into minocycline/placebo adjuvant treatment, a preliminary (lead-in phase) screening phase of placebo treatment was undertaken: Placebo was given as an adjuvant to all patients for two weeks. […] Clinical status was evaluated by the aforementioned scales at the onset of the study, every week for the first 6 weeks, and then once a month for the rest of the study period. Cognitive capabilities were assessed by the neuropsychological battery of tests according to the following schedule: upon initiation of the study (referred to as visit 1 in FIGS. 5-8), 3 months (referred to as visit 2 in FIGS. 5-8), and 6 months (referred to as visit 3 in FIGS. 5-8) after the start of the study. […]

CN(C)c1ccc(O)c2c1C[C@H]1C[C@H]3[C@H](N(C)C)C(O)=C(C(N)=O)C(=O)[C@@]3(O)C(O)=C1C2=O [minocycline]
IED measures (number of stages completed, total errors adjusted, Pre-ED errors, EDS errors) [1]: improved significantly more than the placebo group on all the IED measures except for the Pre-ED errors measure | proportion of patients who gained weight [2]: 31% | proportion of patients who lost weight [2]: 46% | SRM percent of correct responses [3]: kept relatively steady scores

From US20130190275A1, “COMBINED THERAPIES OF ANTIPSYCHOTIC DRUGS AND TETRACYCLINES IN THE TREATMENT OF PSYCHIATRIC DISORDERS” (MOR RESEARCH APPLICATIONS LTD., priority 2006, published 2013)
